Laboratory results: patent US20040248801A1, “Methods and reagents for regulation of cellular responses in biological systems” (priority 2000, published 2004)

Key:
B. subtilis 011085 = experiment: B. subtilis capillary accumulation assay; format: cell-based, Bacillus subtilis; details: saccharide residue concentration; 37° C., 30 min
Description: FIG. 4: Results of B. subtilis capillary accumulation assays using ROMP-derived glucose ligands (compound 5-7, Scheme 1). Buffer alone, glucose, or glucose-bearing compounds 5-7 were used as attractants in the capillary accumulation assay. Results are shown for glucose, compound 5, compound 6, and compound 7. Results are the average of at least four trials performed in duplicate and error bars represent single standard deviations.
To test the generality of the observed valency-dependent differences in chemotactic activities and to investigate the role of membrane permeability in responses to our ligands, chemotactic experiments in B. subtilis were conducted. B. subtilis is a gram-positive bacterium that, like gram-negative E. coli, is able to respond to saccharide chemoattractants. In the case of B. subtilis, the multivalent ligands can directly interact with saccharide-sensing receptors, without having to first traverse the outer membrane. Glucose is a chemoattractant for B. subtilis, but galactose is not. Glucose-carrying ligands (compounds 5-7, Scheme 1) were effective chemoattractants for B. subtilis as shown in capillary accumulation assays. […] Free chemoattractant signal glucose had maximal activity as a chemoattractant at 0.5 mM. In analogy to observations with E. coli, as the valency of the ligand increases, the saccharide residue concentration of maximum chemotaxis decreases. […] The results observed indicate that in evolutionarily divergent bacteria E. coli and B. subtilis, the valency of the attractant influences chemotactic response.
E. coli from an overnight culture were grown in LB to OD550 0.4-0.6, washed twice with E. coli chemotaxis buffer, and then partially permeabilized. Bacteria were resuspended in chemotaxis buffer to an OD550 0.1 and utilized in the capillary accumulation assay at 30° C. for 60 min, as previously described. […] Data was analyzed using the Q and Students tests.

E. coli = details: galactose as attractant [34]; cited from earlier work
E. coli AW405 = experiment: video microscopy motion analysis of bacteria; format: cell-based, Escherichia coli; details: first 5-15 seconds after addition of attractant
Protocol: FIG. 2A: Results of video microscopy motion analysis experiments. Bacteria (Escherichia coli) were treated with buffer alone, galactose, or compound 1 or 3 (Scheme 1) at the indicated saccharide concentrations. The results represent the average from at least five independent experiments performed in triplicate. Error bars represent the deviation between per-second averages during the ten second interval.
Ligands functionalized with galactose such as monovalent ligand 1 and multivalent ligand 3, also serve as attractants in vivo. […] To observe the effects of synthetic ligands on tumbling frequency, E. coli were treated with galactose or galactose-bearing ligands, and bacterial motion was recorded and analyzed using the method of Sager et al.. The tumbling frequency was assessed by averaging the mean angular velocity of the paths obtained in the first 5-15 seconds after addition of attractant (FIG. 2A). […]
Partially permeabilized bacteria (25 μM EDTA for 3 min. at room temperature, then quench with 50 μM CaCl2) at an OD550 of 0.1 were placed under a cover slip supported by additional cover slips in the method of Sager et al.. […] The bacterial motion at 28° C. was recorded, and the paths were analyzed using the ExpertVision system. Paths derived from the first 5 to 15 seconds following the introduction of attractant were analyzed. […] Data were analyzed using the Q and Students tests.

Jurkat cells = experiment: Jurkat cell aggregation; format: cell-based
Protocol: Percent of Jurkat cells present in aggregates is plotted against the treatment. […] Aggregate formation could be inhibited by addition of 50 mM methyl a-D-mannopyranoside (a man). Compounds 9-12 were added to a final mannose concentrations of 0.5 μM or 5 μM along with a final ConA concentration of 5 μg/mL. Results are the average of at least three independent experiments and error bars represent single standard deviations.
The ability of Con A clusters formed on ROMP-derived polymers to aggregate Jurkat cells was examined initially by light microscopy (see FIG. 10). […] For Jurkat cells, inhibition occurred even at low concentrations (0.5 μM) of monovalent ligands. […] Increasing the concentration of the multivalent ligand 10-fold (5 μM) abolished aggregation activity, consistent with site saturation. […] The ability of Con A complexed to multivalent ligands to interact with cell surfaces was thus tunable. […]
Cells were pelleted at 400×g, resuspended gently into 50 μL PBS, and then added to slides for visualization at 200× magnification on a Zeiss Axioscope outfitted with the appropriate filter set. Approximately 100-200 cells were counted from random fields on each day.
Clusters were scored for at least two cells in direct contact with each other and expressed as a percentage of the total number of objects (individual cells and clusters) counted. […]

His-tagged FGF-8b = molecular target: T1, His-tagged FGF-8b (Homo sapiens, UniProt P55075); experiment: cross-linking of FGF-8b (EGS, SDS-PAGE); format: binding; details: increasing ratio of polymer or heparin to FGF-8b
T1 sequence (P55075 23-215 isoform P55075-3 limits assumed): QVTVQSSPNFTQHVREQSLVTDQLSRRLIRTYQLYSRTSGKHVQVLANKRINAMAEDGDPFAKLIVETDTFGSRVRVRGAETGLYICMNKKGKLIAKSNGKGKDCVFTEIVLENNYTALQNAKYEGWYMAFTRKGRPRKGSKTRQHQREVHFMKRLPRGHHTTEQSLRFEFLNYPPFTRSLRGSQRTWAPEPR
Protocol: FIGS. 15A and B are illustrations of SDS-PAGE-gels (12%, under reducing conditions) comparing cross-linking of FGF-8b mediated by nickel-chelating polymer (FIG. 15A) and heparin (FIG. 15B). FGF-8b was incubated with polymer 6 for 1 hour at 0° C. The ratio of FGF-8b to polymer was as follows: a. 1:0.001, b. 1:0.003, c. 1:0.01, d. 1:0.03, e. 1:0.1, f. 1:0.3, f. 1:1. EGS (ethylene glycol bis[succinimidylsuccinate]) was added, and cross-linking was allowed to proceed for 5 minutes at 0° C. The reactions were quenched with ethanolamine (excess) for 1 hour at 0° C. Samples were concentrated under vacuum, analyzed on a 12% SDS-PAGE gel under reducing conditions, and detected with Coomassie staining.
Specifically, one of the functions of the oligosaccharide heparin in vitro is to oligomerize FGF ligand proteins and present them to the FGF receptor in a multivalent fashion. […]
FGF-8b was incubated with polymer 6 for 1 hour at 0° C. […] Samples were concentrated under vacuum, analyzed on a 12% SDS-PAGE gel under reducing conditions, and detected with Coomassie staining.
FGF-8b was incubated with heparin (Sigma, porcine intestinal mucosa, 17-19 kDa) for 1 hour at 0° C. […] Samples were concentrated under vacuum, analyzed on a 12% SDS-PAGE gel under reducing conditions, and detected with Coomassie staining. […]

O=C(NCCOC1OC(CO)C(O)C(O)C1O)C1C[C@@H]2C=CC1C2 (stereo partly shown) [Compound 5]
concentration of maximum activity as chemoattractant (B. subtilis 011085): 1 mM

O=C[C@H](O)[C@@H](O)[C@@H](O)[C@H](O)CO [galactose, reference compound]
number of E. coli accumulated (E. coli): 120,000 bacteria
mean angular velocity (tumbling frequency) after addition of attractant (E. coli AW405): the mean angular velocity decreased

O=C[C@H](O)[C@@H](O)[C@H](O)[C@H](O)CO [glucose, reference compound]
concentration of maximum activity as chemoattractant (B. subtilis 011085): 0.5 mM

CO[C@H]1O[C@H](CO)[C@@H](O)[C@H](O)[C@@H]1O [methyl α-D-mannopyranoside]
effect on Con A aggregate formation (Jurkat cells; 50 mM): inhibited
effect on Con A-mediated Jurkat cell aggregation (Jurkat cells; ligand 0.5 μM premixed with Con A 5 μg/mL): inhibited aggregation

heparin
cross-linking pattern of FGF-8b (His-tagged FGF-8b): pattern in cross-linking indicative of oligomerization due to a specific ligand/scaffold interaction
